Patent US20150238401A1, “PROPYL-PHENYL-ETHER DERIVATIVE, AND MELANOGENESIS INHIBITOR, SKIN-LIGHTENING AGENT, ANTIMICROBIAL AGENT AND COSMETIC CONTAINING SAID PROPYL-PHENYL-ETHER DERIVATIVE” (SEIWA KASEI COMPANY, LIMITED, priority 2012, published 2015)

How the values were obtained:
[1] = system: Escherichia coli, Pseudomonas aeruginosa, Staphylococcus aureus and Candida albicans; assay: Antimicrobial test on SCD agar medium containing the sample; type: cell-based; conditions: 12 specimens per sample (3.0%, 1.0%, 0.5% x four microorganisms), 30° C., 7 days, visual
Description: The propyl-phenyl-ether derivative of the present invention was evaluated for an antimicrobial test using four bacteria: Escherichia coli, Pseudomonas aeruginosa, Staphylococcus aureus and Candida albicans (use of ATCC strain) according to the following procedure. As a comparative compound, 1,2-pentandiol was used.
(1) Into a test tube containing 1.0 g of Tween 80 (polyoxyethylene sorbitan monooleate) added, 0.3 g, 0.1 g or 0.05 g of various samples were added, and SCD (Soybean Casein Digest) agar medium was added each in an amount of about 10 mL so as to give final concentrations of 3.0%, 1.0% and 0.5%, and stirred thoroughly with Vortex. Thereafter, the sample-containing medium was sterilized by high-pressure steam sterilization (for 15 minutes at 121° C.), cooled down to 45° C., the medium was poured gently onto a petri dish sterilized previously, and spread over the whole petri dish having signage of 4-section on the outer surface of the bottom, and allowed to stand still to solidify the medium. (2) Thereafter, various bacterium solutions of which number of bacteria had been previously regulated to 1.0×10^4 to 5.0×10^4 cfu/mL were inoculated on the sample-containing medium prepared in (1), each one bacterium for one section of the petri dish, each in an amount of 10 μL on four places (three concentrations are applied to four kinds of bacteria for each sample, that is, 12 specimens per sample). (3) These were cultured in a 30° C. thermostat bath for 7 days. (4) The presence or absence of bacteria was determined visually.
The results are classified by the following criteria and shown in Table 4. • The number of specimens confirming bacteria was 10 or more: Δ • The number of specimens confirming bacteria was 6 to 9: ◯ • The number of specimens confirming bacteria was 5 or less: ⊚

[2] = system: B16 melanoma 4A5 cell; assay: Melanogenesis inhibiting test (theophylline-induced melanine production); type: cell-based; conditions: B16 mouse melanoma 4A5, theophylline 1.0 mmol/L, 3 days culture, N=4; for IC40: B16 melanoma 4A5, 72 h, read-out: Judgment: sample concentration showing the melanogenesis inhibiting ratio of 40% or more
Description: As a test for a skin-lightening effect, evaluation of the action of B16 melanoma 4A5 cell on theophylline-induced melanine production was carried out on propyl-phenyl-ether derivatives of the present invention, according to the following procedure. (1) B16 mouse melanoma 4A5 strain was sowed onto a 48-well plate at a cell density of 8.0×10^3 cells/well. (2) Culturing was performed for 24 hours with Dulbecco's Modified Eagle's medium (manufactured by SIGMA. Hereinafter, abbreviated as D-MEM) containing 10% fetal bovine serum (manufactured by Nichirei Biosciences Inc.). […] (3) After culturing for 3 days in the co-existence of a sample, the medium was removed using an aspirator. Then, after distilled water was added, cells were broken by an ultrasonic wave. (4) Thereafter, the amount of protein was determined using BCA protein assay kit (manufactured by Thermo Fisher Scientific Inc.), and the produced amount of melanine was measured by an alkali solubilizing method described below. [Alkali Solubilizing Method] To the cell-destructed solution was added sodium hydroxide so as to give a final concentration of 1 mol/L and the mixture was dissolved by heating (60° C., 30 minutes), then, the absorbance at 450 nm was measured using a micro plate reader. The melanine amount was calculated from a calibration curve made using synthetic melanine (SIGMA) as a standard. The melanine amount per unit protein was calculated by dividing the melanine amount by the protein amount. (5) The melanine production suppressing rate was calculated according to the following formula. Melanine production suppressing rate (%)=[1−(A−B)/(C−B)]×100 [wherein, A represents the melanine amount per unit protein (g/g) in adding a sample, B represents the melanine amount per unit protein (g/g) in the normal group, and C represents the melanine amount per unit protein (g/g) in the control group.] In the above, Normal group is a case of theophylline (−; no addition) and sample (−; no addition), and Control group is a case of theophylline (+; addition) and sample (−; no addition). (6) Determination of Skin-Lightening Effect The amount of a sample required for adjusting the melanogenesis inhibiting ratio to 40% or more was measured, and the effect was evaluated by the following criteria based on the measured amount. The measurement was conducted at N=4 (4 wells per sample). The skin-lightening effect is expressed as described below based on the sample concentration showing the melanogenesis inhibiting ratio of 40% or more. The measurement was conducted at N=4.

[3] = Stability test (coloration on storage); type: physicochemical; conditions: for Coloration, 2 weeks after / Coloration, 4 weeks after: 1% in 50% ethanol, pH 6.0 to 8.0, stored at 50° C., total points of 10 panelists
Description: Aascorbic acid, kojic acid, hydroquinone and arbutin which are known skin-lightening agents were used as comparative compounds. […] The solutions were placed in 50 mL screw tubes and closely sealed, and stored at 50° C. for 4 weeks. The degrees of coloration of the solution directly after preparation of the test sample, 2 weeks after storage and 4 weeks after storage were evaluated by 10 panelists according to the following criteria. 3: almost no change as compared with directly after preparation 2: colored as compared with directly after preparation 1: intensely colored as compared with directly after preparation The evaluation results of coloration were classified as described below.

[4] = system: Propionibacterium acnes (JCM6415); assay: Anti-acne test (growth in GAM bouillon medium, OD620); type: cell-based; conditions: sample final concentration 0.1%, 37° C., anaerobic, 48 hours
Description: Propionibacterium acnes (JCM6415: ATCC strain) was transplanted to GAM bouillon medium (manufactured by Nissui Pharmaceutical Co., Ltd.), and cultured at 37° C. under anaerobic condition for 24 hours. Thereafter, it was diluted with GAM bouillon medium so that the final bacterium concentration was OD620=0.1, and this was used as a test bacterium solution. In examples, the propyl-phenyl-ether derivative was weighed so that the final concentration was 0.1%, dissolved in GAM bouillon medium, then, filter-sterilization was performed. The resultant solution was used as a sample solution. The test bacterium solution was added in an amount of 30 μL and the sample solution was added in an amount of 120 μL to a 96-well microplate (manufactured by Sumitomo Bakelite Co., Ltd.), then, immediately, the micro plate and AnaeroPack-KENKI (manufactured by Mitsubishi Gas Chemical Co., Inc.) were placed into an anaerobic jar (manufactured by Mitsubishi Gas Chemical Co., Inc.), and culture was carried out at 37° C. under anaerobic condition for 48 hours. Thereafter, OD620 was measured by a microplate reader. The same test was conducted using methylparaben, phenoxyethanol and sodium ascorbate as comparative compounds.
The results are classified by the following criteria and shown in Table 5-Table 7. • Δ: OD620 is 0.6 or more • ◯: OD620 is 0.3-0.6 • ⊚: OD620 is 0.3 or less

Row | Structure (SMILES) | Judgment: number of specimens confirming bacteria [1] | IC40 [2] | Coloration, 2 weeks after [3] | Coloration, 4 weeks after ([3]; 4 weeks) | Judgment: sample concentration showing the melanogenesis inhibiting ratio of 40% or more [2] | Judgment: OD620 after culture [4] | Stability in terms of coloration (in words) ([3]; summary of Table 8, 50° C., 4 weeks)
1 | CCCC(O)CO (stereo not shown) [1,2-pentandiol, reference compound] | Δ (The number of specimens confirming bacteria was 10 or more: Δ) |  |  |  |  |  | 
2 | OC[C@H]1O[C@@H](Oc2ccc(O)cc2)[C@H](O)[C@@H](O)[C@@H]1O [Arbutin] |  | 30 to 100 µM | ◯ (◯: total points of 10 panelists is 22 or more) | Δ (Δ: total points of 10 panelists is 15 to 21) |  |  | 
3 | O=C1O[C@H]([C@@H](O)CO)C(O)=C1O [Ascorbic acid] |  | ≥ 300 µM | X (X: total points of 10 panelists is 14 or less) | X (X: total points of 10 panelists is 14 or less) |  |  | 
4 | CC(C)(C)c1ccc(OCC(O)CO)cc1 (stereo not shown) [Example 1, 1,2-di-hydroxy-3-(4′-tert-butylphenoxy)propyl] | ⊚ (The number of specimens confirming bacteria was 5 or less: ⊚) |  | ◯ (◯: total points of 10 panelists is 22 or more) | ◯ (◯: total points of 10 panelists is 22 or more) | ⊚⊚ (≦30 μmol/L: ⊚⊚) | ⊚⊚ | excellent in stability in terms of coloration
5 | CCOCC(O)COc1ccc(C(C)(C)C)cc1 (stereo not shown) [Example 3 (1-O-ethyl-2-hydroxy-3-(4′-tert-butylphenoxy)propy] [1-O-ethyl-2-hydroxy-3-(4′-tert-butylphenoxy)propyl] | ⊚ (The number of specimens confirming bacteria was 5 or less: ⊚) |  |  |  | ⊚⊚ (≦30 μmol/L: ⊚⊚) | ◯ (◯: OD620 is 0.3-0.6) | 
6 | CCC(C)c1ccc(OCC(O)CO)cc1 (stereo not shown) [Example 5, 1,2-di-hydroxy-3-(4′-sec-butylphenoxy)propyl] | ⊚ (The number of specimens confirming bacteria was 5 or less: ⊚) |  |  |  | ⊚ (30 to 100 μmol/L: ⊚) | ◯ (◯: OD620 is 0.3-0.6) | 
7 | CCC(C)c1ccccc1OCC(O)CO (stereo not shown) [Example 6, 1,2-di-hydroxy-3-(2′-sec-butylphenoxy)propyl] | ◯ (The number of specimens confirming bacteria was 6 to 9: ◯) | 100 to 300 µM |  |  |  | ◯ (◯: OD620 is 0.3-0.6) | 
8 | CCCCCCCC(=O)OCC(COc1ccc(C(C)(C)C)cc1)OC(=O)CCCCCCC (stereo not shown) [Example 7, 1,2-di-octanoyl-3-(4′-tert-butylphenoxy) propyl] | ◯ (The number of specimens confirming bacteria was 6 to 9: ◯) |  |  |  | ⊚⊚ (≦30 μmol/L: ⊚⊚) | ◯ (◯: OD620 is 0.3-0.6) | 
9 | Oc1ccc(O)cc1 [Hydroquinone] |  | ≥ 300 µM | X (X: total points of 10 panelists is 14 or less) | X (X: total points of 10 panelists is 14 or less) |  |  | 
10 | O=c1cc(CO)occ1O [Kojic acid] |  | ≥ 300 µM | ◯ (◯: total points of 10 panelists is 22 or more) | Δ (Δ: total points of 10 panelists is 15 to 21) |  |  | 
